Source: ChEMBL document CHEMBL1133893, “Design and synthesis of a highly selective EP4-receptor agonist. Part 1: 3,7-dithiaPG derivatives with high selectivity” (Bioorg Med Chem Lett, 2001)
pEC50, pKi: −log10 of the molar value.

Columns and labels:
[1] = target: T1, Prostaglandin E2 receptor EP4 subtype (Mus musculus, UniProt P32240); assay: Effective concentration which increases intracellular c-AMP production in mouse Prostanoid EP4 receptor; type: functional, cell-based
[2] = target: T1, Prostaglandin E2 receptor EP4 subtype; assay: Evaluated for its competitive binding affinity towards mouse Prostanoid EP4 receptor in CHO cells expressing prostanoid receptor; type: cell-based
[3] = target: Prostaglandin E2 receptor EP2 subtype (Mus musculus, UniProt Q62053); assay: Evaluated for its competitive binding affinity towards mouse Prostanoid EP2 receptor in CHO cells expressing prostanoid receptor; type: cell-based
Prostacyclin receptor = Prostacyclin receptor (Homo sapiens, UniProt P43119); assay: Evaluated for its competitive binding affinity towards human Prostanoid IP receptor in CHO cells; type: cell-based
[4] = target: T2, Prostaglandin E2 receptor EP3 subtype (Mus musculus, UniProt P30557); assay: Evaluated for its competitive binding affinity towards mouse Prostanoid EP3 receptor in CHO cells expressing prostanoid receptor; type: cell-based
T2 sequence (P30557 whole entry): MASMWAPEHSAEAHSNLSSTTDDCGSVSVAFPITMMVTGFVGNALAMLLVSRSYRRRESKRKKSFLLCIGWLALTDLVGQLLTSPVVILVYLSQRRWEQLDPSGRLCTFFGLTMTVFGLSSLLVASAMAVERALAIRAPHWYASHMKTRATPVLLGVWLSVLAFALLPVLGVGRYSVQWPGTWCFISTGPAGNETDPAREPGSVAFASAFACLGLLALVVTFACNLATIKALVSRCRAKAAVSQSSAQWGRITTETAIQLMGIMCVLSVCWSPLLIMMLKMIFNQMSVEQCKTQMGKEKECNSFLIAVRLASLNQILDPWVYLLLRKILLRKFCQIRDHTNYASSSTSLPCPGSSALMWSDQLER

[5] = target: T3, Prostaglandin E2 receptor EP1 subtype (Mus musculus, UniProt P35375); assay: Evaluated for its competitive binding affinity towards mouse Prostanoid EP1 receptor in CHO cells expressing prostanoid receptor; type: cell-based
T3 sequence (P35375 whole entry): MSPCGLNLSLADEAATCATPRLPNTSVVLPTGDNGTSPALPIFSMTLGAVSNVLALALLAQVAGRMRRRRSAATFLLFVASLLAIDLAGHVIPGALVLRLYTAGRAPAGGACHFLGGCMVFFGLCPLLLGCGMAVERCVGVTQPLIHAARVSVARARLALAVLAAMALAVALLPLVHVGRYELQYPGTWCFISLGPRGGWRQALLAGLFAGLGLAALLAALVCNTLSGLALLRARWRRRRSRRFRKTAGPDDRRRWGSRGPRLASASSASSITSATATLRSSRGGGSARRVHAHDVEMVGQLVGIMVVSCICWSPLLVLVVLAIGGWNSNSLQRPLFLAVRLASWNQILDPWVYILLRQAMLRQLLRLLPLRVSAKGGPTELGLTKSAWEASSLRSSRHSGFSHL

[6] = Selectivity ratio (Prostanoid EP3 receptor/Prostanoid EP4 receptor) was determined

Sequence of Prostaglandin E2 receptor EP2 subtype (Q62053 whole entry): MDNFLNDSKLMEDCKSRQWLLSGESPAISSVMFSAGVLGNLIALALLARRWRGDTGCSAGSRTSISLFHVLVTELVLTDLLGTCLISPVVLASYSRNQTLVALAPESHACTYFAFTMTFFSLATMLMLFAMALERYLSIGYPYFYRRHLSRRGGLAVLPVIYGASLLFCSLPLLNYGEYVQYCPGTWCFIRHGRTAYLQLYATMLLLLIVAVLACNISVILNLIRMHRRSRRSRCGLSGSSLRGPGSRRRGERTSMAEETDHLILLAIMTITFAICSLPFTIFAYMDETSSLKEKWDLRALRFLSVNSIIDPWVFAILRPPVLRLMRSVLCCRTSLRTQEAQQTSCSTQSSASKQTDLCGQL
T1 sequence (P32240 whole entry): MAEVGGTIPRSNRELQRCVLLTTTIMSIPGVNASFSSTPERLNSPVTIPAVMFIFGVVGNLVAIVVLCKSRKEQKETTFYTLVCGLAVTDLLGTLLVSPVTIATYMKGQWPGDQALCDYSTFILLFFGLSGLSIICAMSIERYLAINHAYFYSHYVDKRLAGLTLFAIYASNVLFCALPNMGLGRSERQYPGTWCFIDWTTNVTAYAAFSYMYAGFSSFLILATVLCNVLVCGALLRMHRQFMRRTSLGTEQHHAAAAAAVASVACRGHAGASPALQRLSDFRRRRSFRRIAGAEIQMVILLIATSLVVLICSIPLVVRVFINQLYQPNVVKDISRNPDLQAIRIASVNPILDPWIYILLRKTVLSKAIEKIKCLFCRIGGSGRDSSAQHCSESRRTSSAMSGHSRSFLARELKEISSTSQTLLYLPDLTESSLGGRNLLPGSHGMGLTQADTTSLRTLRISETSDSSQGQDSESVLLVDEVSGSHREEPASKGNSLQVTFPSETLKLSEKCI
Sequence of Prostacyclin receptor (P43119 whole entry): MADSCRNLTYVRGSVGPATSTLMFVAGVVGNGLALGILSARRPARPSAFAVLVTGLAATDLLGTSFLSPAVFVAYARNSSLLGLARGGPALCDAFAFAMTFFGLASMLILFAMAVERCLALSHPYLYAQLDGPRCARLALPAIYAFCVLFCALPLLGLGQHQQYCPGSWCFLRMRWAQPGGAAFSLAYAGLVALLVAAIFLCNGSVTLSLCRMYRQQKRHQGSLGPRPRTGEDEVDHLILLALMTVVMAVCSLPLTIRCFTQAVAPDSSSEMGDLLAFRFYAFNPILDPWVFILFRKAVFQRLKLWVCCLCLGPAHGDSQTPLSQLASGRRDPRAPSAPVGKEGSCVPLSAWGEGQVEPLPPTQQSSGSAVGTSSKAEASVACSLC

SMILES | pEC50 [1] | pKi [2] | pKi [3] | pKi (Prostacyclin receptor) | pKi [4] | pKi [5] | Selectivity ratio [6]
Cc1ccccc1C[C@H](O)/C=C/[C@H]1[C@H](O)CC(=O)[C@@H]1SCCCSCC(=O)O | 6.38 | 7.66 | 5.60 | < 5.00 | 6.85 | < 5.00 | –
Cc1ccc(C[C@H](O)/C=C/[C@H]2[C@H](O)CC(=O)[C@@H]2SCCCSCC(=O)O)cc1 | 6.57 | 8.14 | 5.92 | < 5.00 | 7.14 | < 5.00 | –
COc1ccc(C[C@H](O)/C=C/[C@H]2[C@H](O)CC(=O)[C@@H]2SCCCSCC(=O)O)cc1 | 7.49 | 8.15 | 5.82 | < 5.00 | 6.66 | 5.51 | 50
CCCOCc1cccc(C[C@H](O)/C=C/[C@H]2[C@H](O)CC(=O)[C@@H]2SCCCSCC(=O)O)c1 | 8.00 | 8.28 | 5.11 | < 5.00 | 5.52 | < 5.00 | –
CCCCC[C@H](O)/C=C/[C@H]1[C@H](O)CC(=O)[C@@H]1CSCCSCC(=O)O | 5.11 | 7.55 | 6.00 | < 5.00 | 8.46 | 7.30 | –
Cc1cccc(C[C@H](O)/C=C/[C@H]2[C@H](O)CC(=O)[C@@H]2SCCCSCC(=O)O)c1 | 8.55 | 8.72 | 6.12 | < 5.00 | 7.00 | < 5.00 | –
CCCCC[C@H](O)/C=C/[C@H]1[C@H](O)CC(=O)[C@@H]1CCCCCCC(=O)O [ALPROSTADIL] | 8.60 | – | 7.39 | – | – | 7.66 | –
COc1ccccc1C[C@H](O)/C=C/[C@H]1[C@H](O)CC(=O)[C@@H]1SCCCSCC(=O)O | 6.24 | 7.49 | 5.59 | < 5.00 | 5.96 | < 5.00 | 50
COCCCc1cccc(C[C@H](O)/C=C/[C@H]2[C@H](O)CC(=O)[C@@H]2SCCCSCC(=O)O)c1 | 7.36 | 7.00 | < 5.00 | < 5.00 | < 5.00 | < 5.00 | –
COc1cccc(C[C@H](O)/C=C/[C@H]2[C@H](O)CC(=O)[C@@H]2SCCCSCC(=O)O)c1 | 7.43 | 8.00 | < 5.00 | < 5.00 | 6.29 | < 5.00 | 50
CCCCC[C@H](O)/C=C/[C@H]1[C@H](O)CC(=O)[C@@H]1SCCCOCC(=O)O | 8.11 | 8.64 | 6.82 | 6.29 | 7.96 | 5.92 | –
CCCCC[C@H](O)/C=C/[C@H]1[C@H](O)CC(=O)[C@@H]1SCCCSCC(=O)O | 8.37 | 9.15 | 6.55 | < 5.00 | 6.66 | 6.21 | –
CCCCC[C@H](O)/C=C/[C@H]1[C@H](O)CC(=O)[C@@H]1SCCSCCC(=O)O | 6.77 | 8.49 | 5.92 | < 5.00 | 8.36 | 6.21 | –
COCc1cccc(C[C@H](O)/C=C/[C@H]2[C@H](O)CC(=O)[C@@H]2SCCCSCC(=O)O)c1 | 8.51 | 8.51 | 5.68 | < 5.00 | 5.92 | < 5.00 | 120
CCCCC[C@H](O)/C=C/[C@H]1[C@H](O)CC(=O)[C@@H]1SCCCCCC(=O)O | 8.43 | 9.15 | 7.00 | 6.06 | 8.35 | 6.92 | –
CSCc1cccc(C[C@H](O)/C=C/[C@H]2[C@H](O)CC(=O)[C@@H]2SCCCSCC(=O)O)c1 | 8.32 | 8.22 | 5.28 | < 5.00 | 6.37 | < 5.00 | 70
CCCC[C@H](C)C[C@H](O)/C=C/[C@H]1[C@H](O)CC(=O)[C@@H]1SCCCCCC(=O)O | – | 9.40 | 7.85 | 8.48 | 8.21 | 7.96 | –
CCOCc1cccc(C[C@H](O)/C=C/[C@H]2[C@H](O)CC(=O)[C@@H]2SCCCSCC(=O)O)c1 | 8.60 | 8.03 | < 5.00 | < 5.00 | 5.35 | < 5.00 | 450
O=C(O)CSCCCS[C@H]1C(=O)C[C@@H](O)[C@@H]1/C=C/[C@@H](O)Cc1ccccc1 | 7.47 | 8.15 | 5.41 | < 5.00 | 6.89 | 5.59 | –
COCCc1cccc(C[C@H](O)/C=C/[C@H]2[C@H](O)CC(=O)[C@@H]2SCCCSCC(=O)O)c1 | 7.92 | 8.07 | 5.51 | < 5.00 | 5.52 | < 5.00 | –
